Measured values reported in patent US20260325655A1, “DECREASING THE INTRINSICALLY DISORDERED PROTEIN ALPHA-SYNUCLEIN’S LEVELS BY TARGETING ITS STRUCTURED MRNA WITH A RIBONUCLEASE TARGETING CHIMERA” (University of Florida Research Foundation, Incorporated, priority 2023, published 2026).

How the values were obtained:
SNCA mRNA [1] = test: SNCA mRNA cleavage after siRNA knock-down of RNase L in SH-SY5Y cells; type: cell-based, human
Procedure: (§1) RNA extraction and reverse transcription-quantitative polymerase chain reaction (RT-qPCR). Total RNA was extracted from cells using a Quick-RNA MiniPrep Kit (Zymo Research) per the manufacturer's protocol including DNase treatment. For each sample, 200 ng of RNA was reverse transcribed into cDNA by using a qScript cDNA Synthesis Kit (QuantaBio) according to the manufacturer's instructions. To assess the relative mRNA levels, RT-qPCR was performed in triplicate using SYBR Green PCR mater mix (Applied Biosystems) with a Quant Studio 5 Real-Time PCR system. The relative levels of mRNA were calculated by using the ΔΔCt method as previously described.^8
Transfection of siRNAs. The siRNAs were purchased from commercial sources as listed in General information. The α-synuclein siRNA (final concentration of 200 nM) or RNase L siRNA (final concentration of 50 nM) were transfected into SH-SY5Y cells (at ~60% confluency in 12-well plates) by using the Lipofectamine RNAiMax (Life technologies) per manufacturer's protocol.

α-synuclein = α-synuclein protein in iPSC-induced dopaminergic neurons; type: cell-based, human
Procedure: (§2) Dopamine neuron induction. For dopamine neuronal induction,^15,16 the dual-SMAD inhibition method^17 was used for floor plate (FP)-based midbrain dopamine (DA) neuron induction with modifications. Prior to differentiation, Matrigel matrix (BD) was thawed at 4° C. overnight or on ice until it is dissolved. Matrigel coated 6-well plates were prepared according to manufacturer's instructions and incubated at 37° C. for at least 1 h before use. iPSCs were dissociated with Accutase (STEMCELL Technologies) and plated (3.5×10^5-4×10^5 cells per cm^2) into a new Matrigel coated plate and grown in mTeSR medium (STEMCELL Technologies) with StemBeads FGF2 (StemCultures) and ROCK inhibitor Y27632 (5 μM, Tocris). After 24 to 48 h, when the cells reached 100% confluency, the differentiation protocol was initiated by feeding the cells with DMEM containing 15% KnockOut Serum Replacement (KSR, Gibco), 2 mM L-glutamine (L-Glut) and 10 μM β-mercaptoethanol for 11 days. […]
ELISA (Enzyme-Linked Immunosorbent Assay). […] After compound treatment, total protein was extracted and quantified as described in Western blotting. The concentration of α-synuclein protein was measured by using Human Alpha-synuclein ELISA Kit (Abcam, ab260052) per the manufacturer's recommendations.

SNCA IRE = test: MST binding affinity for SNCA IRE (A bulge model RNA); settings: microscale thermophoresis; Cy5-labeled RNA
Procedure: (§3) Binding Affinity Measurements: Microscale Thermophoresis (MST). Binding affinity measurements were performed on a Monolith NT.115 MST system (NanoTemper Technologies) with Cy5-labeled oligonucleotides. Briefly, Cy5-labeled RNA (5 nM) was prepared in 1× Folding Buffer and folded by heating at 60° C. for 5 min and then slowly cooling to room temperature. After cooling, Tween-20 was added to a final concentration of 0.1% (v/v). Compound solutions were prepared separately in 30 μL of 1× Assay Buffer at a final concentration of 5 μM (1% (v/v) DMSO), followed by 1:1 serial dilutions in 1× Assay Buffer. RNA and compound solutions were then mixed 1:1 by volume.
(§4) Samples were incubated for 20 min at room temperature and then loaded into premium capillaries (NanoTemper Technologies, Cat #MO-K025). The following parameters were used for MST measurement: 5-20% LED power (adjusted to keep fluorescence intensity between 8000 and 18000), 80% MST power, Laser-On time=30 s, and Laser-Off time=5 s. The resulting data were analyzed by calculating the change in thermophoresis as a function of compound concentration and fitted by Equation (3) in MST analysis software (NanoTemper Technologies) to yield the dissociation constant (Kd):
(§5) where F is the concentration of fluorescently labeled RNA; unbound and bound refer to the thermophoresis signal at completely unbound and bound state of RNA, respectively; c is the concentration of the compound; f (c) is the thermophoresis signal at compound concentration of c; Kd is the dissociation constant.

fully base paired RNA = test: MST binding to fully base paired control RNA; settings: microscale thermophoresis
Procedure: as §3, §4, §5

SNCA mRNA [2] = test: SNCA mRNA in iPSC-induced dopaminergic neurons; type: cell-based, human
Procedure: as §1
as §2, with “Tocris).” for “Tocris). After 24 to 48 h, when the cells reached 100% confluency, the differentiation protocol was initiated by feeding the cells with DMEM containing 15% KnockOut Serum Replacement (KSR, Gibco), 2 mM L-glutamine (L-Glut) and 10 μM β-mercaptoethanol for 11 days.”

Row | Compound | effect of scrambled control siRNA on Syn-RiboTAC activity (SNCA mRNA [1]; scrambled control siRNA) | effect on SNCA mRNA after RNase L knock-down (SNCA mRNA [1]; siRNA pool against RNase L) | decrease of α-synuclein protein levels in dopaminergic neurons (α-synuclein; 2 μM, PD patient-derived (SNCA triplication)) | Kd (SNCA IRE) [µM] | binding towards the fully base paired RNA (fully base paired RNA) | decrease of SNCA transcript levels in dopaminergic neurons (SNCA mRNA [2]) | α-synuclein protein levels in dopaminergic neurons (in words) (α-synuclein; ELISA, FIG. 3D) | effect on SNCA mRNA levels in dopaminergic neurons (in words) (SNCA mRNA [2])
1 | CCOC(=O)C1=C(Nc2ccccc2)S/C(=C\c2ccc(OCCOCCOCCOCCNC(=O)CCCOc3ccc(-n4c(SCC(=O)Nc5ccc6cn[nH]c6c5)nnc4-c4ccncc4)cc3)c(O)c2)C1=O [Syn-RiboTAC] | No significant effect on activity | ablated the effect of Syn-RiboTAC on SNCA mRNA | ~ 50% | 0.103 ± 0.01 | no saturable binding | ~ 50% | – | –
2 | O=C(CSc1nnc(-c2ccncc2)n1-c1ccc(Br)cc1)Nc1ccc2cn[nH]c2c1 [Synucleozid-2.0] | – | – | – | 0.066 ± 0.004 | no saturable binding | – | decreased α-synuclein protein levels | no effect
